In test [1] the test system is VV. The format is cell-based, vaccinia virus.
The next test concerns orthopoxvirus. Particulars: cited from earlier work.
For test [2], the system named is VV. Particulars: cited from earlier work.

`c1cnc2c(c1)ccc1ncccc12` [1,7-phenanthroline]: the VV replication result in the test with VV [1] is “no effect”.

Consider `c1cnc2c(c1)ccc1cccnc12` [1,10-phenanthroline], for which, in the test on VV [1], the “Inhibition of VV replication (FIG. 12)” value is reported as “potent inhibitors of VV replication” and the VV replication entry is given as “completely blocked”.

As to `Nc1ccn(C[C@@H](CO)OCP(=O)(O)O)c(=O)n1` [Cidofovir], the Anti-orthopoxvirus activity entry in the test with orthopoxvirus is given as “potent anti-orthopoxvirus inhibitor”.

As for `NC(=O)CI` [iodoacetamide], in the test with VV [1], the “Inhibition of VV replication (FIG. 12)” value is listed as “potent inhibitors of VV replication” and the VV replication entry is on record as “completely blocked”.

Take `CN1C(=O)/C(=N\NC(N)=S)c2ccccc21` [methisazone, N-methylisatin β-thiosemicarbazone]: in the test with orthopoxvirus, the Anti-orthopoxvirus activity result is on record as “effective at inhibiting orthopoxvirus infections in cultured cells”.

As to pepstatin A, in the test on VV [1], the VV replication entry is “no effect”.

In the case of α-amanitin, the “Phenotype of VV replication” value in the test with VV [2] is “abortive-late phenotype”.

Source of the values: patent publication US7067248B2 (priority 2002, dated 2006).
